{"source": "paper PMC10817531", "about": "“Chlorinated Enyne Fatty Acid Amides from a Marine Cyanobacterium: Discovery of Taveuniamides L-M and Pharmacological Characterization of Taveuniamide F as a GPCR Antagonist with CNR1 Selectivity” (Marine Drugs, 2023)", "experiment_in_all_cases": "PathHunter β-arrestin GpcrMAX assay", "type_in_all_cases": "cell-based", "key": {"SCTR": {"biological_target": "T1, SCTR (Homo sapiens, UniProt P47872)", "T1 construct": "purchased DiscoveRx (Eurofins) gpcrMAX PathHunter β-arrestin panel", "method": "(§1) GpcrMAX panel biosensor assays were used to characterize taveuniamide F (4, 20 µM) (agonist and antagonist mode). The experiments were carried out by DiscoveRx Corporation (Fremont, CA, USA) as described before, using PathHunter β-arrestin enzyme fragment complementation (EFC) technology."}, "DRD2S": {"biological_target": "T2, DRD2S (Homo sapiens, UniProt P14416)", "T2 construct": "purchased DiscoveRx (Eurofins) gpcrMAX PathHunter β-arrestin panel", "method": "as §1"}, "CX3CR1": {"biological_target": "T3, CX3CR1 (Homo sapiens, UniProt P49238)", "T3 construct": "purchased DiscoveRx (Eurofins) gpcrMAX PathHunter β-arrestin panel", "method": "as §1"}, "GPR1": {"biological_target": "T4, GPR1 (Homo sapiens, UniProt P46091)", "T4 construct": "purchased DiscoveRx (Eurofins) gpcrMAX PathHunter β-arrestin panel", "T4 sequence (P46091 whole entry)": "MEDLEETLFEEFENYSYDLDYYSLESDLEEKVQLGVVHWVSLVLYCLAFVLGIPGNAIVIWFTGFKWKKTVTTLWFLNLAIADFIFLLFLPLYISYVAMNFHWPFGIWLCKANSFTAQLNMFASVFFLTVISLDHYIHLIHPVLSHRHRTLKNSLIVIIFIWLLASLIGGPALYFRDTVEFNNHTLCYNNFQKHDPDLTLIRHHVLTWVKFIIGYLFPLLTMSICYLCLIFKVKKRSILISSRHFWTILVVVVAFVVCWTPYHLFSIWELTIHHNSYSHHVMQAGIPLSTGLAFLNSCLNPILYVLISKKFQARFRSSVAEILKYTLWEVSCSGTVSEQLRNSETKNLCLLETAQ", "method": "as §1"}, "CHRM1": {"biological_target": "T5, CHRM1 (Homo sapiens, UniProt P11229)", "T5 construct": "purchased DiscoveRx (Eurofins) gpcrMAX PathHunter β-arrestin panel", "method": "as §1"}, "SSTR2": {"biological_target": "T6, SSTR2 (Homo sapiens, UniProt P30874)", "T6 construct": "purchased DiscoveRx (Eurofins) gpcrMAX PathHunter β-arrestin panel", "method": "as §1"}, "TACR3": {"biological_target": "T7, TACR3 (Homo sapiens, UniProt P29371)", "T7 construct": "purchased DiscoveRx (Eurofins) gpcrMAX PathHunter β-arrestin panel", "T7 sequence (P29371 whole entry)": "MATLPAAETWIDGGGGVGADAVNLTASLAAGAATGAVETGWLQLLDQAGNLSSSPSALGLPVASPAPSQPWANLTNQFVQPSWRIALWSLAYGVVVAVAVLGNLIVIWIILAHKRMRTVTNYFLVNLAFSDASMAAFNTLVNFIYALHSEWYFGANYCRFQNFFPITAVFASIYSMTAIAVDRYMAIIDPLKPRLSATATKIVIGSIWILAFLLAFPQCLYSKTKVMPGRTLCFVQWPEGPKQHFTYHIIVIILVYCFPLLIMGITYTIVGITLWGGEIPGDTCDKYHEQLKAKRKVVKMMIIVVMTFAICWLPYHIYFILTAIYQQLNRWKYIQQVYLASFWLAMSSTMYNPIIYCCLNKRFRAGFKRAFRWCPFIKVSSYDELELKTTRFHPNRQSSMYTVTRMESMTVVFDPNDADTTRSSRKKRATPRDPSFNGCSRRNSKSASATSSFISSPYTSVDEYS", "method": "as §1"}, "NPY2R": {"biological_target": "T8, NPY2R (Homo sapiens, UniProt P49146)", "T8 construct": "purchased DiscoveRx (Eurofins) gpcrMAX PathHunter β-arrestin panel", "method": "as §1"}, "EDG4": {"biological_target": "T9, EDG4 (Homo sapiens, UniProt Q9HBW0)", "T9 construct": "purchased DiscoveRx (Eurofins) gpcrMAX PathHunter β-arrestin panel", "method": "as §1"}, "NPBWR2": {"biological_target": "T10, NPBWR2 (Homo sapiens, UniProt P48146)", "T10 construct": "purchased DiscoveRx (Eurofins) gpcrMAX PathHunter β-arrestin panel", "method": "as §1"}, "OPRM1": {"biological_target": "T11, OPRM1 (Homo sapiens, UniProt P35372)", "T11 construct": "purchased DiscoveRx (Eurofins) gpcrMAX PathHunter β-arrestin panel", "method": "as §1"}, "CCR4": {"biological_target": "T12, CCR4 (Homo sapiens, UniProt P51679)", "T12 construct": "purchased DiscoveRx (Eurofins) gpcrMAX PathHunter β-arrestin panel", "method": "as §1"}, "TRHR": {"biological_target": "T13, TRHR (Homo sapiens, UniProt P34981)", "T13 construct": "purchased DiscoveRx (Eurofins) gpcrMAX PathHunter β-arrestin panel", "T13 sequence (P34981 whole entry)": "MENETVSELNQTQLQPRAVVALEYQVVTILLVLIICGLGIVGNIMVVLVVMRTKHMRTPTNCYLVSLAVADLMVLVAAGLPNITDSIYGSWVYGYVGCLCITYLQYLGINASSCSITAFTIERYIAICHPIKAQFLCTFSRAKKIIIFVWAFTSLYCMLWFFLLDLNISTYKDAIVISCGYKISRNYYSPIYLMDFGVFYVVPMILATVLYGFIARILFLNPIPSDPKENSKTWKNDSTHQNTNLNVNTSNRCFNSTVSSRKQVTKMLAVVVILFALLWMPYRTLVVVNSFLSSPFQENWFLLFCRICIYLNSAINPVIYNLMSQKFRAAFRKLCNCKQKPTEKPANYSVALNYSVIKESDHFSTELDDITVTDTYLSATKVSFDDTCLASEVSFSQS", "method": "as §1"}, "HTR1F": {"biological_target": "T14, HTR1F (Homo sapiens, UniProt P30939)", "T14 construct": "purchased DiscoveRx (Eurofins) gpcrMAX PathHunter β-arrestin panel", "method": "as §1"}, "F2RL1": {"biological_target": "T15, F2RL1 (Homo sapiens, UniProt P55085)", "T15 construct": "purchased DiscoveRx (Eurofins) gpcrMAX PathHunter β-arrestin panel", "method": "as §1"}, "PTHR2": {"biological_target": "T16, PTHR2 (Homo sapiens, UniProt P49190)", "T16 construct": "purchased DiscoveRx (Eurofins) gpcrMAX PathHunter β-arrestin panel", "T16 sequence (P49190 25-550)": "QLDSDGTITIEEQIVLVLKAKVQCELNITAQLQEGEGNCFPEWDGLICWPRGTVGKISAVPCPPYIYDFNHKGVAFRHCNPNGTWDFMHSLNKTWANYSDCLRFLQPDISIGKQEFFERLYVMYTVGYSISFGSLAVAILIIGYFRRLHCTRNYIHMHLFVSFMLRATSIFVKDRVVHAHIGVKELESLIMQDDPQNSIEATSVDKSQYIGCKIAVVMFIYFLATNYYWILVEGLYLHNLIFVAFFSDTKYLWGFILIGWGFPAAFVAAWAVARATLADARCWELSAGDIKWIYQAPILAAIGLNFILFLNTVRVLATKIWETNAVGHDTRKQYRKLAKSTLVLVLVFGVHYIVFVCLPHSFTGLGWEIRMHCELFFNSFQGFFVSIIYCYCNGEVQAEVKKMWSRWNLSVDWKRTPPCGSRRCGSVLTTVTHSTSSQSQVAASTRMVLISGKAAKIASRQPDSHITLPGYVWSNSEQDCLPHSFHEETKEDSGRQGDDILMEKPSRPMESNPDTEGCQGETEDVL", "method": "as §1"}, "C5L2": {"biological_target": "C5L2 (Homo sapiens, UniProt Q9P296)", "method": "as §1"}, "HTR1E": {"biological_target": "T17, HTR1E (Homo sapiens, UniProt P28566)", "T17 construct": "purchased DiscoveRx (Eurofins) gpcrMAX PathHunter β-arrestin panel", "method": "as §1"}, "TBXA2R": {"biological_target": "T18, TBXA2R (Homo sapiens, UniProt P21731)", "T18 construct": "purchased DiscoveRx (Eurofins) gpcrMAX PathHunter β-arrestin panel", "method": "as §1"}, "PROKR1": {"biological_target": "T19, PROKR1 (Homo sapiens, UniProt Q8TCW9)", "T19 construct": "purchased DiscoveRx (Eurofins) gpcrMAX PathHunter β-arrestin panel", "method": "as §1"}, "PTGER2": {"biological_target": "T20, PTGER2 (Homo sapiens, UniProt P43116)", "T20 construct": "purchased DiscoveRx (Eurofins) gpcrMAX PathHunter β-arrestin panel", "method": "as §1"}, "SSTR5": {"biological_target": "T21, SSTR5 (Homo sapiens, UniProt P35346)", "T21 construct": "purchased DiscoveRx (Eurofins) gpcrMAX PathHunter β-arrestin panel", "method": "as §1"}, "GPR109B": {"biological_target": "T22, GPR109B (Homo sapiens, UniProt P49019)", "T22 construct": "purchased DiscoveRx (Eurofins) gpcrMAX PathHunter β-arrestin panel", "method": "as §1"}, "CALCRL-RAMP1": {"biological_target": "CALCRL-RAMP1 (Homo sapiens, UniProt O60894+Q16602)", "method": "as §1"}, "PTAFR": {"biological_target": "T23, PTAFR (Homo sapiens, UniProt P25105)", "T23 construct": "purchased DiscoveRx (Eurofins) gpcrMAX PathHunter β-arrestin panel", "method": "as §1"}, "GHSR": {"biological_target": "T24, GHSR (Homo sapiens, UniProt Q92847)", "T24 construct": "purchased DiscoveRx (Eurofins) gpcrMAX PathHunter β-arrestin panel", "method": "as §1"}, "CRTH2": {"biological_target": "T25, CRTH2 (Homo sapiens, UniProt Q9Y5Y4)", "T25 construct": "purchased DiscoveRx (Eurofins) gpcrMAX PathHunter β-arrestin panel", "method": "as §1"}, "CCR2": {"biological_target": "T26, CCR2 (Homo sapiens, UniProt P41597)", "T26 construct": "purchased DiscoveRx (Eurofins) gpcrMAX PathHunter β-arrestin panel", "T26 sequence (P41597 whole entry)": "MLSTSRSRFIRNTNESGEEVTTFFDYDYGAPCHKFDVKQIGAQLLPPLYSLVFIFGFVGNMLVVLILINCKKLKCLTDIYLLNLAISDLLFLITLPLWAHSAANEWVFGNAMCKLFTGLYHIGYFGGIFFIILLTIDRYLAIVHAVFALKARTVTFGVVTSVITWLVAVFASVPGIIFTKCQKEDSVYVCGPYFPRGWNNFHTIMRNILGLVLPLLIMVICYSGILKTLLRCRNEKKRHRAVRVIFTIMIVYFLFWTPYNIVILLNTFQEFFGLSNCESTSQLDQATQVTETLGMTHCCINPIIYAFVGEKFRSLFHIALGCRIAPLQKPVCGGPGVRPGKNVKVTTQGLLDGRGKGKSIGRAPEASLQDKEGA", "method": "as §1"}, "CALCR-RAMP3": {"biological_target": "CALCR-RAMP3 (Homo sapiens, UniProt O60896+P30988)", "method": "as §1"}, "HCRTR1": {"biological_target": "T27, HCRTR1 (Homo sapiens, UniProt O43613)", "T27 construct": "purchased DiscoveRx (Eurofins) gpcrMAX PathHunter β-arrestin panel", "method": "as §1"}, "GALR1": {"biological_target": "T28, GALR1 (Homo sapiens, UniProt P47211)", "T28 construct": "purchased DiscoveRx (Eurofins) gpcrMAX PathHunter β-arrestin panel", "T28 sequence (P47211 whole entry)": "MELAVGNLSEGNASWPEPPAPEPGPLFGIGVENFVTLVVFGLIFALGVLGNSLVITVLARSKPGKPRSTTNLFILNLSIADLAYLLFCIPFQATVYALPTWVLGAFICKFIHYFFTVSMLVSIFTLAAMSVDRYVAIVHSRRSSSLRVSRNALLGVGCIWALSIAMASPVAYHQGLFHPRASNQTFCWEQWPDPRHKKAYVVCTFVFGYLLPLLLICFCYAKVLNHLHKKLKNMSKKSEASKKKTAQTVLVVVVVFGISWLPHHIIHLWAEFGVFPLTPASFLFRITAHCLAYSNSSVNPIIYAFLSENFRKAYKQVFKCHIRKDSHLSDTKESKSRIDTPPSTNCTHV", "method": "as §1"}, "P2RY12": {"biological_target": "T29, P2RY12 (Homo sapiens, UniProt Q9H244)", "T29 construct": "purchased DiscoveRx (Eurofins) gpcrMAX PathHunter β-arrestin panel", "method": "as §1"}, "PTGER3": {"biological_target": "T30, PTGER3 (Homo sapiens, UniProt P43115)", "T30 construct": "purchased DiscoveRx (Eurofins) gpcrMAX PathHunter β-arrestin panel", "T30 sequence (P43115 whole entry)": "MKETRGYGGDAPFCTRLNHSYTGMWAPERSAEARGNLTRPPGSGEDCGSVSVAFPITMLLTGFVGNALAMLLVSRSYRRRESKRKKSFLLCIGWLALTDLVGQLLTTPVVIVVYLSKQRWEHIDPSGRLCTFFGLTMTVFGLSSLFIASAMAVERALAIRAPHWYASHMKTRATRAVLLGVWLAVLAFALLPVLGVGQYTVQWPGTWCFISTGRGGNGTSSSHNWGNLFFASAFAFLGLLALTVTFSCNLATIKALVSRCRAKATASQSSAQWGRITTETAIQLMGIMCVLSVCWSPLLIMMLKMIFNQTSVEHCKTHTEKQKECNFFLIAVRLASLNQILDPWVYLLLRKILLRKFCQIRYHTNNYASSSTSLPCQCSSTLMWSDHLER", "method": "as §1"}, "CCKAR": {"biological_target": "T31, CCKAR (Homo sapiens, UniProt P32238)", "T31 construct": "purchased DiscoveRx (Eurofins) gpcrMAX PathHunter β-arrestin panel", "method": "as §1"}, "TSHR(L)": {"biological_target": "T32, TSHR(L) (Homo sapiens, UniProt P16473)", "T32 construct": "purchased DiscoveRx (Eurofins) gpcrMAX PathHunter β-arrestin panel", "method": "as §1"}, "BDKRB2": {"biological_target": "BDKRB2 (Homo sapiens, UniProt P30411)", "method": "as §1"}, "AGTRL1": {"biological_target": "AGTRL1 (Homo sapiens, UniProt P35414)", "sequence (P35414 whole entry)": "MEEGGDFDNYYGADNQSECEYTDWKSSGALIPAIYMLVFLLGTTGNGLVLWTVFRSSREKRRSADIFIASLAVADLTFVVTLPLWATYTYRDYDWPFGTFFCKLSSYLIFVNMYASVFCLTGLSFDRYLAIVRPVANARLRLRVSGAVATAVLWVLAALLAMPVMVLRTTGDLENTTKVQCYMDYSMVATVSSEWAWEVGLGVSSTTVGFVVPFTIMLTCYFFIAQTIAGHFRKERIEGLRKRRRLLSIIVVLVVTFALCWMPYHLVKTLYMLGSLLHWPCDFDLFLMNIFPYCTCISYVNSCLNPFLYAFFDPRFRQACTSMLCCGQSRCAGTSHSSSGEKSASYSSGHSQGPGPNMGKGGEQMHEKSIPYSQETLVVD", "method": "as §1"}, "RXFP3": {"biological_target": "T33, RXFP3 (Homo sapiens, UniProt Q9NSD7)", "T33 construct": "purchased DiscoveRx (Eurofins) gpcrMAX PathHunter β-arrestin panel", "T33 sequence (Q9NSD7 whole entry)": "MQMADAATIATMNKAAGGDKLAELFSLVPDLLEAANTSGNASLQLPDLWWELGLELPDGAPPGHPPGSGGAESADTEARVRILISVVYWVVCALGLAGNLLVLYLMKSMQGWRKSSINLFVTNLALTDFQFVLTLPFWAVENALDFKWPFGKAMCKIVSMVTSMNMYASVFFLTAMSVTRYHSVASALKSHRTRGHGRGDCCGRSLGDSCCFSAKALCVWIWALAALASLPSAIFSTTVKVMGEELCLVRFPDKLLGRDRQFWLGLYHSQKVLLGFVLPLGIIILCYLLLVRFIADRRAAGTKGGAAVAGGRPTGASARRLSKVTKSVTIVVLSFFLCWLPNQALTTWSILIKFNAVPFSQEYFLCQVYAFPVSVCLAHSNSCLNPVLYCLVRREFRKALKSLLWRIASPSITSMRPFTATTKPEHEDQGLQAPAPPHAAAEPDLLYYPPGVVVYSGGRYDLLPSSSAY", "method": "as §1"}, "MLNR": {"biological_target": "T34, MLNR (Homo sapiens, UniProt O43193)", "T34 construct": "purchased DiscoveRx (Eurofins) gpcrMAX PathHunter β-arrestin panel", "method": "as §1"}, "EDG6": {"biological_target": "T35, EDG6 (Homo sapiens, UniProt O95977)", "T35 construct": "purchased DiscoveRx (Eurofins) gpcrMAX PathHunter β-arrestin panel", "T35 sequence (O95977 whole entry)": "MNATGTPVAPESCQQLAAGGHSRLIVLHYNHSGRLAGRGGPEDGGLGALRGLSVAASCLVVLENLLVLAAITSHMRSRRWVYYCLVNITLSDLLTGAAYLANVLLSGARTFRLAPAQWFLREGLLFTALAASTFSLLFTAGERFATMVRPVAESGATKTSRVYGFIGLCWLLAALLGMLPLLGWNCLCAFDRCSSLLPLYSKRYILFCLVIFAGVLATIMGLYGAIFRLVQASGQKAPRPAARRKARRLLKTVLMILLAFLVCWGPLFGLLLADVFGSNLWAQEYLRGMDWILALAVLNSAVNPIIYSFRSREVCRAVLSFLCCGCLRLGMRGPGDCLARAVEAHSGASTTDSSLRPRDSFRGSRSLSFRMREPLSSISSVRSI", "method": "as §1"}, "PROKR2": {"biological_target": "T36, PROKR2 (Homo sapiens, UniProt Q8NFJ6)", "T36 construct": "purchased DiscoveRx (Eurofins) gpcrMAX PathHunter β-arrestin panel", "T36 sequence (Q8NFJ6 whole entry)": "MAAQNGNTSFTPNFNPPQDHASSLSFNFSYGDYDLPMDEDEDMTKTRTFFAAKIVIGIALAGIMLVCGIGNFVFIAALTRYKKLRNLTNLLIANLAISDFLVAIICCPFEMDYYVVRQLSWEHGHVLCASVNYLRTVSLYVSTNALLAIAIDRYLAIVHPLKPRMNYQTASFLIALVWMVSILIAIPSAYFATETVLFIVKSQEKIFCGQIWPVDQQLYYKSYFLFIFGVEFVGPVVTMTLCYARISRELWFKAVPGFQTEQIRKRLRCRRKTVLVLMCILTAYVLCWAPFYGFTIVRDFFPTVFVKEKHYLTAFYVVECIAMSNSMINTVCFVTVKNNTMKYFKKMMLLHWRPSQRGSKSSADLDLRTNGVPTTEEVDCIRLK", "method": "as §1"}, "VIPR2": {"biological_target": "T37, VIPR2 (Homo sapiens, UniProt P41587)", "T37 construct": "purchased DiscoveRx (Eurofins) gpcrMAX PathHunter β-arrestin panel", "T37 sequence (P41587 24-438)": "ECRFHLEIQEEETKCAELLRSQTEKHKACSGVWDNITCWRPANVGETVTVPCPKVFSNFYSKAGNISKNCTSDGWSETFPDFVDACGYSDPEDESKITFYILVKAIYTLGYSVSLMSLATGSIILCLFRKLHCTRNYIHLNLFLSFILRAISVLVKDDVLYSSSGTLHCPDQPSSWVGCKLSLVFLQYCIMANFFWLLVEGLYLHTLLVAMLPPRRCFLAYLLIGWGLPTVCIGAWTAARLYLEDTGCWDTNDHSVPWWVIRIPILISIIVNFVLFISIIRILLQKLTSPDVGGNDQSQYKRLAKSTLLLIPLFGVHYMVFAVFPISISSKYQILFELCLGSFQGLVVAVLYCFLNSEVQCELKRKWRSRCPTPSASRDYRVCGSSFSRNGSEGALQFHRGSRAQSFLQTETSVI", "method": "as §1"}}, "data": [{"smiles": "CC(=O)N[C@@H](CCCC#C/C=C/Cl)CCCCCCC(Cl)Cl", "note": "[Compound 4, taveuniamide F]", "values": [{"measurement": "inhibition at 20 µM", "setting": "SCTR", "value": 16.9, "unit": "%"}, {"measurement": "inhibition at 20 µM", "setting": "DRD2S", "value": -8.1, "unit": "%"}, {"measurement": "inhibition at 20 µM", "setting": "CX3CR1", "value": 35.6, "unit": "%"}, {"measurement": "inhibition at 20 µM", "setting": "GPR1", "value": 18.7, "unit": "%"}, {"measurement": "inhibition at 20 µM", "setting": "CHRM1", "value": 21.8, "unit": "%"}, {"measurement": "inhibition at 20 µM", "setting": "SSTR2", "value": -0.1, "unit": "%"}, {"measurement": "inhibition at 20 µM", "setting": "TACR3", "value": 15.2, "unit": "%"}, {"measurement": "inhibition at 20 µM", "setting": "NPY2R", "value": 0.5, "unit": "%"}, {"measurement": "inhibition at 20 µM", "setting": "EDG4", "value": 56.3, "unit": "%"}, {"measurement": "inhibition at 20 µM", "setting": "NPBWR2", "value": 13.7, "unit": "%"}, {"measurement": "inhibition at 20 µM", "setting": "OPRM1", "value": -1, "unit": "%"}, {"measurement": "inhibition at 20 µM", "setting": "CCR4", "value": 58.9, "unit": "%"}, {"measurement": "inhibition at 20 µM", "setting": "TRHR", "value": 42.8, "unit": "%"}, {"measurement": "inhibition at 20 µM", "setting": "HTR1F", "value": 41.7, "unit": "%"}, {"measurement": "inhibition at 20 µM", "setting": "F2RL1", "value": -6.7, "unit": "%"}, {"measurement": "inhibition at 20 µM", "setting": "PTHR2", "value": 30.4, "unit": "%"}, {"measurement": "inhibition at 20 µM", "setting": "C5L2", "value": 24.1, "unit": "%"}, {"measurement": "inhibition at 20 µM", "setting": "HTR1E", "value": 26.8, "unit": "%"}, {"measurement": "inhibition at 20 µM", "setting": "TBXA2R", "value": -4.4, "unit": "%"}, {"measurement": "inhibition at 20 µM", "setting": "PROKR1", "value": 37.6, "unit": "%"}, {"measurement": "inhibition at 20 µM", "setting": "PTGER2", "value": 4.4, "unit": "%"}, {"measurement": "inhibition at 20 µM", "setting": "SSTR5", "value": 2.4, "unit": "%"}, {"measurement": "inhibition at 20 µM", "setting": "GPR109B", "value": 36.1, "unit": "%"}, {"measurement": "inhibition at 20 µM", "setting": "CALCRL-RAMP1", "value": 31.2, "unit": "%"}, {"measurement": "inhibition at 20 µM", "setting": "PTAFR", "value": 14.3, "unit": "%"}, {"measurement": "inhibition at 20 µM", "setting": "GHSR", "value": 30.8, "unit": "%"}, {"measurement": "inhibition at 20 µM", "setting": "CRTH2", "value": 16.9, "unit": "%"}, {"measurement": "inhibition at 20 µM", "setting": "CCR2", "value": -1.7, "unit": "%"}, {"measurement": "inhibition at 20 µM", "setting": "CALCR-RAMP3", "value": 3.1, "unit": "%"}, {"measurement": "inhibition at 20 µM", "setting": "HCRTR1", "value": 44.9, "unit": "%"}, {"measurement": "inhibition at 20 µM", "setting": "GALR1", "value": 5.7, "unit": "%"}, {"measurement": "inhibition at 20 µM", "setting": "P2RY12", "value": 1.4, "unit": "%"}, {"measurement": "inhibition at 20 µM", "setting": "PTGER3", "value": -13, "unit": "%"}, {"measurement": "inhibition at 20 µM", "setting": "CCKAR", "value": 10.9, "unit": "%"}, {"measurement": "inhibition at 20 µM", "setting": "TSHR(L)", "value": 7.6, "unit": "%"}, {"measurement": "inhibition at 20 µM", "setting": "BDKRB2", "value": 8.4, "unit": "%"}, {"measurement": "inhibition at 20 µM", "setting": "AGTRL1", "value": 6.8, "unit": "%"}, {"measurement": "inhibition at 20 µM", "setting": "RXFP3", "value": 32.8, "unit": "%"}, {"measurement": "inhibition at 20 µM", "setting": "MLNR", "value": 53.1, "unit": "%"}, {"measurement": "inhibition at 20 µM", "setting": "EDG6", "value": 19.6, "unit": "%"}, {"measurement": "inhibition at 20 µM", "setting": "PROKR2", "value": 30.5, "unit": "%"}, {"measurement": "inhibition at 20 µM", "setting": "VIPR2", "value": 4.6, "unit": "%"}]}]}
